{"source": "patent US10758534B2", "about": "(Vertex Pharmaceuticals Incorporated, priority 2014, dated 2020)", "molecular_target": "T1, F508del (Homo sapiens, UniProt P13569, DEL508-508)", "T1 construct": "expressed in transfected cells", "T1 sequence (P13569 with tags, fused parts or gaps DEL508-508)": "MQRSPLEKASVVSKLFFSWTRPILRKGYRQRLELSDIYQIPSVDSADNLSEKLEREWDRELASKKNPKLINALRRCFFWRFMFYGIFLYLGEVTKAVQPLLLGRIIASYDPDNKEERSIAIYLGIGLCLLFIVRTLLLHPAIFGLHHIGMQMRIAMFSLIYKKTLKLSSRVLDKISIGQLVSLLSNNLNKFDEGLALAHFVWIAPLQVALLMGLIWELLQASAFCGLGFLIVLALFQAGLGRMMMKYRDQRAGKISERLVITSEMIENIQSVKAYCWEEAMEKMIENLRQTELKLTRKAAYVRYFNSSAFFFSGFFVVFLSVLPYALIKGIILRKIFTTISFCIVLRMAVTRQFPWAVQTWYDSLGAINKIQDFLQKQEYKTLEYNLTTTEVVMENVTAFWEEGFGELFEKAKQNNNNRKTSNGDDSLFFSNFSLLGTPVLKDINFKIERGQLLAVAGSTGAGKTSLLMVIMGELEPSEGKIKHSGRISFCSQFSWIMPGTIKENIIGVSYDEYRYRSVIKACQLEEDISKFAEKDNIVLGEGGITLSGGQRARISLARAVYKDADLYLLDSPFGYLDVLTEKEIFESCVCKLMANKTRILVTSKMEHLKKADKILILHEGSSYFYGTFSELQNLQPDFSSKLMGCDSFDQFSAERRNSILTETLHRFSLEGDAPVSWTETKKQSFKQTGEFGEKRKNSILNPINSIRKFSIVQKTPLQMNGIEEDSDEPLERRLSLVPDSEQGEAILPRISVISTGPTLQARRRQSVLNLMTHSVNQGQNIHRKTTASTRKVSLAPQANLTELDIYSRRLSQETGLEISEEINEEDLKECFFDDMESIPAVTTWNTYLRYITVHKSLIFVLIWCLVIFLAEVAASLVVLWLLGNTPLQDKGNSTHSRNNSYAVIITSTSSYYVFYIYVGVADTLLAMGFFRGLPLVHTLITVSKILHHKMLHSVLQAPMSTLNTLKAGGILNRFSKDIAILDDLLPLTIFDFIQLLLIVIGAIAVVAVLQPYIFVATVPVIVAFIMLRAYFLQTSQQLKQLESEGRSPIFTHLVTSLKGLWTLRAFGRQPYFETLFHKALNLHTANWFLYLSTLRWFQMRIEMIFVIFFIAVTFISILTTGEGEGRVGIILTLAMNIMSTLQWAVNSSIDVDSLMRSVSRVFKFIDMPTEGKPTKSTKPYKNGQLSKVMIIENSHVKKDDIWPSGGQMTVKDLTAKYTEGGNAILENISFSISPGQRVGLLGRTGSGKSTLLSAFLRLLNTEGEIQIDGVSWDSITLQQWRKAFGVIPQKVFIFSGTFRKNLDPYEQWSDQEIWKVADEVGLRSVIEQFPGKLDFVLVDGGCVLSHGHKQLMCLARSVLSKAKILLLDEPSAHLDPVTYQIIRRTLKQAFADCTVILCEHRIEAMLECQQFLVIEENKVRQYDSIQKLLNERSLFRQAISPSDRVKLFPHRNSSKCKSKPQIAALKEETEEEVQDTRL", "experiment": "Protocol 2: FRET membrane potential optical assay (VIPR), identification of correction compounds", "type": "cell-based", "conditions": "Table 3; compounds of Table 1 as modulators of CFTR activity; protocol not stated", "how_it_was_run": "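NIH3T3 mouse fibroblasts stably expressing F508del were treated with test compound for 16 hrs at 37° C. in serum-free medium; 27° C. incubation served as positive control. F508del was activated with 10 μM forskolin plus 20 μM genistein in Cl^−-free medium, and Cl^− efflux-driven depolarization was read by DiSBAC2(3)/CC2-DMPE FRET.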"}
{"compound": "Cc1cc(C)c(Cc2ccc(C(C)(C)C)nc2C(=O)NS(=O)(=O)c2cccc(N)c2)c(C)c1", "note": "[Compound 313, N-(3-aminophenyl)sulfonyl-6-tert-butyl-3-[(2,4,6-trimethylphenyl)methyl]pyridine-2-carboxamide]", "values": [{"measurement": "EC30", "value": "+++ (“+++” means <3 uM)"}]}
{"compound": "CC(C)c1ccc(-c2nc(C(C)(C)C)ccc2C(=O)NS(=O)(=O)c2cccc(N)c2)cc1", "note": "[Compound 314, N-(3-aminophenyl)sulfonyl-6-tert-butyl-2-(4-isopropylphenyl)pyridine-3-carboxamide]", "values": [{"measurement": "EC30", "value": "+++ (“+++” means <3 uM)"}]}
{"compound": "Cc1cccc(C)c1Cn1nc(-c2cccc(C(F)F)c2)cc1C(=O)NS(=O)(=O)c1ccccc1", "note": "[Compound 315, N-(benzenesulfonyl)-5-[3-(difluoromethyl)phenyl]-2-[(2,6-dimethylphenyl)methyl]pyrazole-3-carboxamide]", "values": [{"measurement": "EC30", "value": "+++ (“+++” means <3 uM)"}]}
{"compound": "Cc1cccc(C)c1Cn1nc(-c2ccc(C(F)(F)F)cc2)cc1C(=O)NS(=O)(=O)c1ccccc1", "note": "[Compound 316, N-(benzenesulfonyl)-2-[(2,6-dimethylphenyl)methyl]-5-[4-(trifluoromethyl)phenyl]pyrazole-3-carboxamide]", "values": [{"measurement": "EC30", "value": "+++ (“+++” means <3 uM)"}]}
{"compound": "Cc1cc(C)c(C)c(Cn2nc(C(C)(C)C)cc2C(=O)NS(=O)(=O)c2cccc(N)c2)c1C", "note": "[Compound 317, N-(3-aminophenyl)sulfonyl-5-tert-butyl-2-[(2,3,5,6-tetramethylphenyl)methyl]pyrazole-3-carboxamide]", "values": [{"measurement": "EC30", "value": "+++ (“+++” means <3 uM)"}]}
{"compound": "Cc1cc(C)c(Oc2nc(-c3cc(F)cc(OCC(C)C)c3)ccc2C(=O)NS(=O)(=O)c2cc[nH]n2)c(C)c1", "note": "[Compound 318, 6-(3-fluoro-5-isobutoxy-phenyl)-N-(1H-pyrazol-3-ylsulfonyl)-2-(2,4,6-trimethylphenoxy)pyridine-3-carboxamide]", "values": [{"measurement": "EC30", "value": "+++ (“+++” means <3 uM)"}]}
{"compound": "Cc1cc(C)c(CN2Cc3ccccc3C2C(=O)NS(=O)(=O)c2cccc(=O)[nH]2)c(C)c1", "note": "(stereo not drawn) [Compound 319, N-[(6-oxo-1H-pyridin-2-yl)sulfonyl]-2-[(2,4,6-trimethylphenyl)methyl]isoindoline-1-carboxamide]", "values": [{"measurement": "EC30", "value": "++ (“++” means between 3 uM and 10 uM)"}]}
{"compound": "Cc1cc(C)c(Oc2nc(-c3ccc(OCC(C)C)cc3)ccc2C(=O)NS(=O)(=O)c2cccc(N)n2)c(C)c1", "note": "[Compound 320, N-[(6-amino-2-pyridyl)sulfonyl]-6-(4-isobutoxyphenyl)-2-(2,4,6-trimethylphenoxy)pyridine-3-carboxamide]", "values": [{"measurement": "EC30", "value": "+++ (“+++” means <3 uM)"}]}
{"compound": "CC1CCCN(c2nc(-c3ccc(OC(C)C)nc3)ccc2C(=O)NS(=O)(=O)c2cccc(N)n2)C1", "note": "(stereo not drawn) [Compound 321, N-[(6-amino-2-pyridyl)sulfonyl]-6-(6-isopropoxy-3-pyridyl)-2-(3-methyl-1-piperidyl)pyridine-3-carboxamide]", "values": [{"measurement": "EC30", "value": "+++ (“+++” means <3 uM)"}]}
{"compound": "Cc1cc(C)c(Oc2nc(C(C)(C)C)ccc2C(=O)NS(=O)(=O)c2ccccc2N)c(C)c1", "note": "[Compound 322, N-(2-aminophenyl)sulfonyl-6-tert-butyl-2-(2,4,6-trimethylphenoxy)pyridine-3-carboxamide]", "values": [{"measurement": "EC30", "value": "+++ (“+++” means <3 uM)"}]}
{"compound": "Cc1cccc(C)c1Cn1nc(CCC(C)(C)C)cc1C(=O)NS(=O)(=O)c1cccc(N)c1", "note": "[Compound 323, N-(3-aminophenyl)sulfonyl-5-(3,3-dimethylbutyl)-2-[(2,6-dimethylphenyl)methyl]pyrazole-3-carboxamide]", "values": [{"measurement": "EC30", "value": "+++ (“+++” means <3 uM)"}]}
{"compound": "Cc1cc(C)c(Cc2nn(C(C)(C)C)cc2C(=O)NS(=O)(=O)c2cccc(N)c2)c(C)c1", "note": "[Compound 324, N-(3-aminophenyl) sulfonyl-1-tert-butyl-3-[(2,4,6-trimethylphenyl)methyl]pyrazole-4-carboxamide]", "values": [{"measurement": "EC30", "value": "++ (“++” means between 3 uM and 10 uM)"}]}
{"compound": "Cc1cc(C)c(Oc2nn(C(C)(C)C)cc2C(=O)NS(=O)(=O)c2cccc(N)c2)c(C)c1", "note": "[Compound 325, N-(3-aminophenyl)sulfonyl-1-tert-butyl-3-(2,4,6-trimethylphenoxy)pyrazole-4-carboxamide]", "values": [{"measurement": "EC30", "value": "+++ (“+++” means <3 uM)"}]}
{"compound": "Cn1ccc2cccc(Oc3nc(C(C)(C)C)ccc3C(=O)NS(=O)(=O)c3ccccc3)c21", "note": "[Compound 326, N-(benzenesulfonyl)-6-tert-butyl-2-(1-methylindol-7-yl)oxy-pyridine-3-carboxamide]", "values": [{"measurement": "EC30", "value": "+++ (“+++” means <3 uM)"}]}
{"compound": "COc1cccc(S(=O)(=O)NC(=O)c2ccc(C(C)(C)C)nc2-c2ccc(C)cc2)c1", "note": "[Compound 327, 6-tert-butyl-N-(3-methoxyphenyl)sulfonyl-2-(p-tolyl)pyridine-3-carboxamide]", "values": [{"measurement": "EC30", "value": "+++ (“+++” means <3 uM)"}]}
{"compound": "CC(C)(C)c1cc(C(=O)NS(=O)(=O)c2ccccc2)n(Cc2cccc3ccccc23)n1", "note": "[Compound 328, N-(benzenesulfonyl)-5-tert-butyl-2-(1-naphthylmethyl)pyrazole-3-carboxamide]", "values": [{"measurement": "EC30", "value": "+++ (“+++” means <3 uM)"}]}
{"compound": "Cc1cccc(C)c1Cn1nc(-c2ccc(N3CCCCC3)nc2)cc1C(=O)NS(=O)(=O)c1ccccc1", "note": "[Compound 329, N-(benzenesulfonyl)-2-[(2,6-dimethylphenyl)methyl]-5-[6-(1-piperidyl)-3-pyridyl]pyrazole-3-carboxamide]", "values": [{"measurement": "EC30", "value": "+++ (“+++” means <3 uM)"}]}
{"compound": "Cc1cc(C)c(Oc2nc(C(C)(C)C)ccc2C(=O)NS(=O)(=O)c2cccnc2)c(C)c1", "note": "[Compound 330, 6-tert-butyl-N-(3-pyridylsulfonyl)-2-(2,4,6-trimethylphenoxy)pyridine-3-carboxamide]", "values": [{"measurement": "EC30", "value": "+++ (“+++” means <3 uM)"}]}
{"compound": "Cc1cccc(C)c1Cn1c(C(=O)NS(=O)(=O)c2cccc(N)c2)cc2ccccc21", "note": "[Compound 331, N-(3-aminophenyl)sulfonyl-1-[(2,6-dimethylphenyl)methyl]indole-2-carboxamide]", "values": [{"measurement": "EC30", "value": "+++ (“+++” means <3 uM)"}]}
{"compound": "CC(=O)c1cccc(S(=O)(=O)NC(=O)c2cc(C(C)(C)C)nn2Cc2c(C)cc(C)cc2C)c1", "note": "[Compound 332, N-(3-acetylphenyl)sulfonyl-5-tert-butyl-2-[(2,4,6-trimethylphenyl)methyl]pyrazole-3-carboxamide]", "values": [{"measurement": "EC30", "value": "+++ (“+++” means <3 uM)"}]}
{"compound": "Cc1cccc(C)c1Cn1nc(-c2ccc(F)cc2)cc1C(=O)NS(=O)(=O)c1ccccc1", "note": "[Compound 333, N-(benzenesulfonyl)-2-[(2,6-dimethylphenyl)methyl]-5-(4-fluorophenyl)pyrazole-3-carboxamide]", "values": [{"measurement": "EC30", "value": "+++ (“+++” means <3 uM)"}]}
{"compound": "CC(C)(C)c1ccc(C(=O)NS(=O)(=O)c2cccc(N)n2)c(-c2ccccc2)n1", "note": "[Compound 334, N-[(6-amino-2-pyridyl)sulfonyl]-6-tert-butyl-2-phenyl-pyridine-3-carboxamide]", "values": [{"measurement": "EC30", "value": "++ (“++” means between 3 uM and 10 uM)"}]}
{"compound": "COc1cccc(S(=O)(=O)NC(=O)c2cc3ccccc3n2Cc2c(C)cc(C)cc2C)c1", "note": "[Compound 335, N-(3-methoxyphenyl)sulfonyl-1-[(2,4,6-trimethylphenyl)methyl]indole-2-carboxamide]", "values": [{"measurement": "EC30", "value": "+++ (“+++” means <3 uM)"}]}
{"compound": "COc1ccc2c(c1)cc(C(=O)NS(=O)(=O)c1cccc(N)c1)n2Cc1c(C)cc(C)cc1C", "note": "[Compound 336, N-(3-aminophenyl)sulfonyl-5-methoxy-1-[(2,4,6-trimethylphenyl)methyl]indole-2-carboxamide]", "values": [{"measurement": "EC30", "value": "+++ (“+++” means <3 uM)"}]}
